One data set has as its target T1, ASIC1a channel (Mus musculus, UniProt Q6NXK8).
T1 construct: endogenous in cells
T1 sequence (Q6NXK8 1-526): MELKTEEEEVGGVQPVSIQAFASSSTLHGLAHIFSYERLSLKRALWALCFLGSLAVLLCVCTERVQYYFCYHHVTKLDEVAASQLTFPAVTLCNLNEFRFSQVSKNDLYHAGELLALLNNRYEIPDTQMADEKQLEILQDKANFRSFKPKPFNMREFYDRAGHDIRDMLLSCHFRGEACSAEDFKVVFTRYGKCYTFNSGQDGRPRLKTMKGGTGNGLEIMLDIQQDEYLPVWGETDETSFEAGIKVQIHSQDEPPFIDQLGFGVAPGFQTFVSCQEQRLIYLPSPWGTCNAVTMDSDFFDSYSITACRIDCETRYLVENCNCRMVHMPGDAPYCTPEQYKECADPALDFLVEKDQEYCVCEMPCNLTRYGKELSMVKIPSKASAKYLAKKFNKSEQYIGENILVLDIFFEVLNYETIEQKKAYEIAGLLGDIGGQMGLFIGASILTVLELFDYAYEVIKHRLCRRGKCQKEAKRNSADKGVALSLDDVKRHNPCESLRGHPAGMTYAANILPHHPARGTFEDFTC
In words: Table 1, inhibition in neurons. Format: cell-based. The procedure:
ASIC currents were recorded with whole-cell patch-clamp and fast-perfusion techniques. […] For low pH solutions, various amounts of HCl were added. For solutions with pH<6.0, MES instead of HEPES was used for more reliable pH buffering. Patch electrodes contained (in mM) 140 CsF, 2.0 MgCl2, 1.0 CaC2, 10 HEPES, 11 EGTA, 4 MgATP (pH 7.3), 300 mOsm. […] A multibarrel perfusion system (SF-77B, Warner Instrument Co.) was employed for rapid exchange of solutions.

Data set [1] can be described thus: Mouse 60 min MCAO, intracerebroventricular injection one hour after MCAO, infarct volume. The following applies: mice, evaluated one day after ischemia induction, FIG. 18.
Another data set has as its target T2, ASIC2a (Homo sapiens, UniProt Q16515).
T2 construct: expressed in transfected cells; host or cells: CHO
T2 sequence (Q16515 1-512): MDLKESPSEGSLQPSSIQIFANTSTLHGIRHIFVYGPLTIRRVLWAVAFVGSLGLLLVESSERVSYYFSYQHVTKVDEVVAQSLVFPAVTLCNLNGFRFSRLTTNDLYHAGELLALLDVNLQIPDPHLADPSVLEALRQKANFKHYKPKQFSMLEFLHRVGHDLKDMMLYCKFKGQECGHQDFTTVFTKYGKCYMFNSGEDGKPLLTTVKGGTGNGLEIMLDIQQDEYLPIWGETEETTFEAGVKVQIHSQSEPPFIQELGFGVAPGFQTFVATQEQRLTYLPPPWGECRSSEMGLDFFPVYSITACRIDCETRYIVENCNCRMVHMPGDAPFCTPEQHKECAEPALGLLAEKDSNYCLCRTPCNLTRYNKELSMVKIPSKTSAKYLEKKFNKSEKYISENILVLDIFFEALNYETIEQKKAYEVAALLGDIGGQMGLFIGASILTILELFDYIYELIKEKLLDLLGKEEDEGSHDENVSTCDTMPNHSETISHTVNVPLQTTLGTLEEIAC
In words: Blockade of ASIC 2a current expressed in CHO cells. Format: cell-based.

Data set [2] addresses T3, ASIC1a (Homo sapiens, UniProt P78348).
T3 sequence (P78348 1-528): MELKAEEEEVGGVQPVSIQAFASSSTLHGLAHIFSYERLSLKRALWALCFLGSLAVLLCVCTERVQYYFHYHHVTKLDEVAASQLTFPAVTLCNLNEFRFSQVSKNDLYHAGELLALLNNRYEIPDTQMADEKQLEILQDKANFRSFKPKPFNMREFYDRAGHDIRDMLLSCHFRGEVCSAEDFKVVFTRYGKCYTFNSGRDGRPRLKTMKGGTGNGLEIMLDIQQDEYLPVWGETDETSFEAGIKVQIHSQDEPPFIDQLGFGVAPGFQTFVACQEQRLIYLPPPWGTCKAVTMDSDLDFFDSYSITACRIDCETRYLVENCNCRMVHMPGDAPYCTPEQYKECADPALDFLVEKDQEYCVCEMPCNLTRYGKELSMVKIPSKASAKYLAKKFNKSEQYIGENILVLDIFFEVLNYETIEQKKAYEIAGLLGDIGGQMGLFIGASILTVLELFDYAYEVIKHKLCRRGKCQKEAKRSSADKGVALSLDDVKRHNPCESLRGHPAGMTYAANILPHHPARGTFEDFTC
In words: Blockade of ASIC 1a current expressed in CHO cells. Format: cell-based. Details: expressed in transfected cells; host or cells: CHO. Conditions: for block of ASIC1a current: CHO cells, FIG. 16.

A further data set relates to Knockout 1a. In words: Table 1, inhibition in Knockout 1a. Format: cell-based.
The next data set relates to Knockout 2a. Briefly: Table 1, inhibition in Knockout 2a. Format: cell-based.
Data set [3] has as its system cultured cortical neurons. Briefly: LDH release after combined 1 hr OGD/acidosis in cortical neurons. Format: cell-based, mouse. The following applies: trolox 500 µM, L-NAME 300 µM; n=8-11. As to the method:
(§1) Background absorbance at 620 was subtracted.
Neurons were washed three times and incubated with glucose-free ECF at pH 7.4 or 6.0 in an anaerobic chamber (Model 1025, Forma Scientific) with an atmosphere of 85% N2, 10% H2, and 5% CO2 at 35° C. Oxygen-glucose deprivation (OGD) was terminated after 1 hr by replacing the glucose-free ECF with Neurobasal medium and incubating the cultures in a normal cell culture incubator.
As the magnitude of ASIC currents may be potentiated by cellular and neurochemical components of brain ischemia-cell swelling, arachidonic acid, and lactate and, more importantly, the desensitization of ASIC currents may be reduced dramatically by modeled ischemia (see FIGS. 5A and 5C), activation of ASICs in ischemic conditions is expected to produce greater neuronal injury. To test this hypothesis, neurons were subjected to 1 hr acid treatment under oxygen and glucose deprivation (OGD). MK801, CNQX, and nimodipine were added to all solutions to inhibit voltage-gated Ca^2+ channels and glutamate receptor-mediated cell injury associated with OGD. One hour incubation with pH 7.4 ECF under OGD conditions induced only 27.1% ± 3.5% of maximal LDH release at 24 hr (n=5, FIG. 9D).
For orientation: LDH leaks from cells whose membrane has failed.

For a further data set, the system named is ASIC1^-/- neurons. Format: cell-based, mouse. The following applies: 1 hr treatment with 1 mM NMDA+10 µM glycine in Mg^2+-free pH 7.4 ECF; n=4. The procedure: Following anesthesia with halothane, cerebral cortices were dissected from E16 Swiss mice or P1 ASIC1+/+ and ASIC1-/- mice and incubated with 0.05% trypsin-EDTA for 10 min at 37° C. Tissues were then triturated with fire-polished glass pipettes and plated on poly-L-ornithine-coated 24-well plates or 25x25 mm glass coverslips at a density of 2.5x10^5 cells per well or 10^6 cells per coverslip. Neurons were cultured with MEM supplemented with 10% horse serum (for E16 cultures) or Neurobasal medium supplemented with B27 (for PI cultures) and used for electrophysiology and toxicity studies after 12 days. Glial growth was suppressed by addition of 5-fluoro-2-deoxyuridine and uridine, yielding cultured cells with 90% neurons as determined by NeuN and GFAP staining (data not shown).
as §1
. […] . In contrast to acid incubation, 1 hr treatment of ASIC1^-/- neurons with 1 mM NMDA+10 µM glycine (in Mg^2+-free [pH 7.4] ECF) induced 84.8% ± 1.4% of maximal LDH release at 24 hr (n=4, FIG. 9C), indicating normal response to other cell injury processes.

The target in data set [4] is T3, ASIC1a. In words: Inhibition of the ASIC1a channel (IC50 from Table 1, cell system not given). Format: cell-based. Conditions: quoted in the text from Table 1.
For data set [5] the following is noted: 0.9% saline; cited from earlier work.
Data set [6] can be described thus: Mouse 60 min MCAO, memantine i.p. with or without PcTX venom i.c.v., infarct volume. Format: in vivo, mice.
The next data set concerns cortical neurons. In words: Fura-2 Ca^2+ imaging of acid-induced increase of [Ca^2+]i in cortical neurons. Format: cell-based, mouse. The following applies: preincubation with 1 µM; n=6.
Setting [7] is: read-out: Inhibition of the ASIC1a channel, Neuron (-60 mV).
Where [8] appears, read: Neuron (-60 mV), read-out: Inhibition of the ASIC1a channel, Neuron (-60 mV).

Where “and” joins values, the source holds several entries; their conditions need not be identical. Equal values may be shown once. Where a name gives a salt, the structure may show the parent alone. Read-outs that look alike come from different tables or passages of the source.

On to `CN(C)c1nc(N)c(C(=O)NC(=N)N)nc1Cl` [5-(N, N-Dimenthyl)amiloride hydrochloride], for which the IC50 at ASIC1a channel (setting [7]) was found to be 14.8 ± 7.1 µM.

As for `CC(C)CN(C)c1nc(N)c(C(=O)N=C(N)N)nc1Cl` [5-(N-Methyl-N-isobutyl)-amiloride], the IC50 on ASIC1a channel (setting [7]) turned out to be 24.3 µM. Turning to `CC(C)COCC(CN(Cc1ccccc1)c1ccccc1)N1CCCC1` (stereo not drawn) [Bepridil, bepridil], the infarct volume entry in data set [1] is recorded as “effectively reduce infarct volume”. For the same compound, the IC50 on ASIC1a channel (setting [8]) worked out at 82.9 ± 5.2 µM.

Regarding `CCN(c1nc(N)c(C(=O)NC(=N)N)nc1Cl)C(C)C` [EIPA, 5-(N-ethyl-N-isopropyl) amiloride], the IC50 at ASIC2a (CHO 2a, read-out: Inhibition, CHO 2a) turned out to be 31 µM; on ASIC1a [2] (CHO 1a, read-out: Inhibition of the ASIC1a channel, CHO 1a) it was 111 ± 30 µM; with Knockout 1a, 35.9 ± 2.1 µM; in the data set with Knockout 2a it was 20.1 ± 2.2 µM; at ASIC1a channel (Neuron (-20 mV), read-out: Inhibition of the ASIC1a channel, Neuron (-20 mV)), 32.2 ± 6.3 µM; on ASIC1a channel (setting [8]), 43.3 ± 1.43 µM. Further, the “block of ASIC2a current” value at ASIC2a (CHO cells, FIG. 17) is reported as “dose-dependent”. The “block of ASIC1a current” value at ASIC1a [2] was “dose-dependent”. With `COC(=O)[C@@H](N)CCCNC(=N)N[N+](=O)[O-]` [L-NAME], in data set [3], the “LDH release induced by combined 1 hr OGD/acidosis” value is recorded as “not inhibited”. Consider `CN[C@H](CC(=O)O)C(=O)O` [NMDA], for which the “maximal LDH release at 24 hr” value in the data set with ASIC1^-/- neurons is 84.8% ± 1.4%. Turning to `NC(=NCc1ccccc1)NC(=O)c1nc(Cl)c(N)nc1N` [benzamil], the IC50 against ASIC1a [4] was 4.9 µM and 4 to 8 µM. Moreover, the reported solubility in data set [5] was 0.4 mg/ml and 1.7 mM. Take `CC12CC3CC(C)(C1)CC(N)(C3)C2` [memantine]: the infarct volume was found to be 27.7 ± 1.6 mm^3 in [6] (ASIC1^-/- mice, memantine i.p., n=5) and 61.6 ± 12.7 mm^3 in data set [6] (ASIC^+/+ mice, 10 mg/kg memantine i.p., saline 101.4 ± 9.4, n=5). For the compound `NC(=Nc1ccccc1)NC(=O)c1nc(Cl)c(N)nc1N` [phenamil], the “block of ASIC1a current” value on ASIC1a [2] is listed as “dose-dependent”. With `C/C=C(/C)C(=O)O[C@H]1C(C)=C2[C@H]([C@@H]1OC(=O)CCCCCCC)[C@@](C)(OC(C)=O)C[C@H](OC(=O)CCC)[C@@]1(O)[C@H]2OC(=O)[C@@]1(C)O` [thapsigargin], in the data set with cortical neurons, the “sustained component of Ca^2+ increase” value was “partially inhibited”. As to `Cc1c(C)c2c(c(C)c1O)CCC(C)(C(=O)O)O2` (stereo not drawn) [trolox], the “LDH release induced by combined 1 hr OGD/acidosis” value in [3] is reported as “not inhibited”.

These data come from patent EP3035931B1, “COMPOSITION FOR REDUCING NERVOUS SYSTEM INJURY AND METHOD OF MAKING AND USE THEREOF” (Morehouse School of Medicine, priority 2013, dated 2015).
